# Tests used:
# [1] = tested on: rats (Sprague-Dawley, male); conditions: rat, in vivo
# Procedure: Veratridine was injected intra-plantar at 30 micrograms.
# Known preclinical and clinical analgesics were tested to see if they could prevent veratridine-induced behaviors.
# male mice (CD1 strain) = conditions: mouse, in vivo
# NaV1.5 = NaV1.5 (Rattus norvegicus, UniProt P15389); conditions: cited from earlier work
# NaV1.8 = NaV1.8 (Rattus norvegicus, UniProt Q62968); conditions: cited from earlier work
# NaV1.9 = NaV1.9 (Rattus norvegicus, UniProt O88457); conditions: cited from earlier work
# hNaV1.7 = biological target: T1, hNaV1.7 (Homo sapiens, UniProt Q15858); assay type: cell-based
# T1 construct: expressed in transfected cells; host or cells: HEK 293
# T1 sequence (Q15858 whole entry): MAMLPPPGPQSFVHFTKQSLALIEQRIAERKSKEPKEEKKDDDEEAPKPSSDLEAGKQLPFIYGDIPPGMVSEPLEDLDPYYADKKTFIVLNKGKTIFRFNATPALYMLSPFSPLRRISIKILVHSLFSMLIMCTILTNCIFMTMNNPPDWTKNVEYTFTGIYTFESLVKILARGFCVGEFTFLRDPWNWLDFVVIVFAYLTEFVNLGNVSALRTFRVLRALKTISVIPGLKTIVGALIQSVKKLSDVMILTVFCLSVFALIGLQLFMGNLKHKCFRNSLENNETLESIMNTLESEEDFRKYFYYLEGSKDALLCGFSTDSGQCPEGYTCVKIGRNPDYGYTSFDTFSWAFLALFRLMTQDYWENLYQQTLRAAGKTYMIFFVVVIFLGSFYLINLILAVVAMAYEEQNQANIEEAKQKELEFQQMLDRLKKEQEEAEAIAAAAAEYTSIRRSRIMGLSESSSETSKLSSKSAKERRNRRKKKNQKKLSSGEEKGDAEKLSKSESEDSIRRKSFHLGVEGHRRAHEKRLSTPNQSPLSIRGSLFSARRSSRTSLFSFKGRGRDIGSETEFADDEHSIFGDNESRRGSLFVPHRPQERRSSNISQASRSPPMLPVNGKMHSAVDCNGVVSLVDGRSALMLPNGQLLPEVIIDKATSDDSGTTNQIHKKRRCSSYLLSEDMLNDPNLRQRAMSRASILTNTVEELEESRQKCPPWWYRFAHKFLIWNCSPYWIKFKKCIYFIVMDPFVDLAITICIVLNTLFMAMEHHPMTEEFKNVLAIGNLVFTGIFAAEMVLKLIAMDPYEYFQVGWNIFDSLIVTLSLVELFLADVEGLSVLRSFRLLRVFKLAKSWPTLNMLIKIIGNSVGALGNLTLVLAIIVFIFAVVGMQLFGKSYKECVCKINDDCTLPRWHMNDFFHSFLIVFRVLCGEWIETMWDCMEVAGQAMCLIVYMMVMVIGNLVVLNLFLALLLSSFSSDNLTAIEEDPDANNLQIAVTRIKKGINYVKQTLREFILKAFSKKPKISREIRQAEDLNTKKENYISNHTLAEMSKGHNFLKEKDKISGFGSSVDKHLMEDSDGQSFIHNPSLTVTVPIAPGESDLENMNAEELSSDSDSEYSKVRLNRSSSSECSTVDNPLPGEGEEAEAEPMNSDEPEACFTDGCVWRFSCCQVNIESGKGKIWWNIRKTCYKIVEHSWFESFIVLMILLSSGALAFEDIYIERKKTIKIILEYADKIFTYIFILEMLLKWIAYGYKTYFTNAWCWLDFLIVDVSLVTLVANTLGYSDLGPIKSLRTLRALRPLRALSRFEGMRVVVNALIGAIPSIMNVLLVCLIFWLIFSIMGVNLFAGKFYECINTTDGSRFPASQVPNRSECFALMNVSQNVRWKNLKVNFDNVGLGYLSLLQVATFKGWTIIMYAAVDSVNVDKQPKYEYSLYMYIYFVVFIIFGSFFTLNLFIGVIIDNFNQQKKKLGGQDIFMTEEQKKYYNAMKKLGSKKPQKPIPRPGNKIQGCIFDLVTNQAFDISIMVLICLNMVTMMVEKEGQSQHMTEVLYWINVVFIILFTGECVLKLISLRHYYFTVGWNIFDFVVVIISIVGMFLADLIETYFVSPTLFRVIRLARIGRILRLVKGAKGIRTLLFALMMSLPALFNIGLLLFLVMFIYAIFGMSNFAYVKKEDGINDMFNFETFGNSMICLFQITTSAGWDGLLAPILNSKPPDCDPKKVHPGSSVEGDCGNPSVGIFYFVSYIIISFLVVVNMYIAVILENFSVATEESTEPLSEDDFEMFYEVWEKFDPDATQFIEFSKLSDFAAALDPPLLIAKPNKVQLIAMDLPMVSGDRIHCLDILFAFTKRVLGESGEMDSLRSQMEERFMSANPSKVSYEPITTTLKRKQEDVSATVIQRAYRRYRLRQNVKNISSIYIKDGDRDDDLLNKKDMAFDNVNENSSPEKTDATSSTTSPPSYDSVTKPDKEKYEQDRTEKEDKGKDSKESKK
# Chain of NaV1.8 (Q62968 whole entry, looked up): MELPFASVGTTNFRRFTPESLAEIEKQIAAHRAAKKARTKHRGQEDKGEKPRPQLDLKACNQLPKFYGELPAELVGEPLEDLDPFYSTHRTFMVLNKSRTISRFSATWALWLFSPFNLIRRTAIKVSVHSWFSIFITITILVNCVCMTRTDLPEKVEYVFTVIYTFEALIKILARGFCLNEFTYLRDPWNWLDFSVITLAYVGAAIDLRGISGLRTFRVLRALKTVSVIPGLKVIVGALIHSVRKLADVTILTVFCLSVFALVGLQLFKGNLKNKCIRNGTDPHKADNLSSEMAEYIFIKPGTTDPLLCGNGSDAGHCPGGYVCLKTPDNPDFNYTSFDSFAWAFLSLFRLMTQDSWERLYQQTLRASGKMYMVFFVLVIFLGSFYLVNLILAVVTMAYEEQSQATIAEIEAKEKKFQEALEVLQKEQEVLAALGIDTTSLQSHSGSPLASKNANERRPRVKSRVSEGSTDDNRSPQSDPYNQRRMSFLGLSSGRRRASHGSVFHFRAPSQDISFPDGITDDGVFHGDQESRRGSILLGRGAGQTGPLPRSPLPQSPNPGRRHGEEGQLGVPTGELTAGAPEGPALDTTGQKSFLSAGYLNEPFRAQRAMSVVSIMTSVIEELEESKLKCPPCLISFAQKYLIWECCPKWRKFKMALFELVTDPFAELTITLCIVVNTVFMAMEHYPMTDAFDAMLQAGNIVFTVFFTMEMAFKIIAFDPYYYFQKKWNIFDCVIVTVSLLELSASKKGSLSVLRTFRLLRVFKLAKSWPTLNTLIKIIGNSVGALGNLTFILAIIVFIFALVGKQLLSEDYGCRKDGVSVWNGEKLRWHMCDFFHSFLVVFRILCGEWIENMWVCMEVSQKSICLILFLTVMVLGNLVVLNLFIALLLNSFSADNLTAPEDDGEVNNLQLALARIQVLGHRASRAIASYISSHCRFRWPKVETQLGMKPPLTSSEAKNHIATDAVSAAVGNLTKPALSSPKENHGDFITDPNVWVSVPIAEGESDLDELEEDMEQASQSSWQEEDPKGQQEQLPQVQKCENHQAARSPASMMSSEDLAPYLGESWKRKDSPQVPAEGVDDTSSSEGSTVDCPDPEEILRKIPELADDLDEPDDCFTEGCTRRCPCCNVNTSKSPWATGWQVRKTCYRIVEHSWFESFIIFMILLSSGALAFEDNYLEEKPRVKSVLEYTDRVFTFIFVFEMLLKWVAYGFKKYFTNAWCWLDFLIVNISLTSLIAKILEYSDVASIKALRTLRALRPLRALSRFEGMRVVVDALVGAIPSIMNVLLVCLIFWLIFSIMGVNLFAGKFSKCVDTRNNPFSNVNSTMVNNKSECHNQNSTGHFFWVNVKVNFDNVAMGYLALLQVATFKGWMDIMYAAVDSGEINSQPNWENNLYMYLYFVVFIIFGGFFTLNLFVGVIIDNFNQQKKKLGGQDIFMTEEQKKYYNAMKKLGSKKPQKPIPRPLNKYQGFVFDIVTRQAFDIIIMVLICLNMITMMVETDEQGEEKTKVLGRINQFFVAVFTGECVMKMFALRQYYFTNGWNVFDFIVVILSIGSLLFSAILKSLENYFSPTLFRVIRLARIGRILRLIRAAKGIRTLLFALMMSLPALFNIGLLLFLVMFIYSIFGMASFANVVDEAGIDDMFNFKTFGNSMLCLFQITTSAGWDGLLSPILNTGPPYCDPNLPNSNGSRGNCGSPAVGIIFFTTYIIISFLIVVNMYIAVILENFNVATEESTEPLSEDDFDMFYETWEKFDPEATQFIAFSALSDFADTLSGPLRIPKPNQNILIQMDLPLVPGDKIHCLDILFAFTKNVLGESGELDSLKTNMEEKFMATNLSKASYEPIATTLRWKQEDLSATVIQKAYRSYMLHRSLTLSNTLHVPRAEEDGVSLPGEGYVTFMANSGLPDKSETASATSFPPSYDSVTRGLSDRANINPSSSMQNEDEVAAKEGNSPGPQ
compound,measurement,setting,value
CN1C(=O)CN=C(c2ccccc2)c2cc(Cl)ccc21 [Diazepam],Significant Reversal of Edema,[1],No
same,Significant Reversal of Flinching,[1],No
same,Significant Reversal of Lifting,[1],No
same,"sodium channel activator-induced pain-like behaviors (licking, flinching)",[1],ineffective
"CNCC[C@H](Oc1cccc2ccccc12)c1cccs1 [Duloxetine, duloxetine]",Significant Reversal of Edema,[1],No
same,"sodium channel activator-induced pain-like behaviors (licking, flinching)",[1],inhibited somewhat
"NCC1(CC(=O)O)CCCCC1 [Gabapentin, gabapentin]",Significant Reversal of Edema,[1],No
"Cc1cccc(C)c1OCC(C)N (centres unmarked) [Mexiletine, mexiletine]",effects of veratridine (lifting),male mice (CD1 strain),blocked
same,lifting/licking response to deltamethrin,male mice (CD1 strain),prevented the lifting/licking response
same,lifting/licking response to grayanotoxin III,male mice (CD1 strain),prevented the lifting/licking response
same,Significant Reversal of Edema,[1],Yes
same,Significant Reversal of Flinching,[1],Yes
same,Significant Reversal of Lifting,[1],Yes
same,veratridine-induced lifting and flinching behaviors,[1]; po,prevented in a dose-dependent manner
"CN1CC[C@]23c4c5ccc(O)c4O[C@H]2[C@@H](O)C=C[C@H]3[C@H]1C5 [Morphine, morphine]",Significant Reversal of Edema,[1],No
"COc1ccc2cc([C@H](C)C(=O)O)ccc2c1 [Naproxen, naproxen]",Significant Reversal of Edema,[1],No
"NC1=N[C@H](O)[C@H]2[C@H]3O[C@]4(O)O[C@@H]([C@@H](O)[C@@]2(N1)[C@@H]4O)[C@]3(O)CO [TTX, tetrodotoxin]",block by TTX,NaV1.5,resistant to block
same,block by TTX,NaV1.8,resistant to block
same,block by TTX,NaV1.9,resistant to block
CC1(C)[C@H](C(=O)O[C@H](C#N)c2cccc(Oc3ccccc3)c2)[C@@H]1C=C(Br)Br [deltamethrin],response to injected sodium channel modulator,male mice (CD1 strain),produced a lifting/licking response
CC1(O)CC23CC(O)C4(O)C(CC(O)C4(C)C)C(C)(O)C2CCC1C3O (centres unmarked) [grayanotoxin III],inactivation during the test pulse,hNaV1.7,did not inactivate
same,voltage at which sodium currents start to be activated,hNaV1.7,−95 mV
same,response to injected sodium channel modulator,male mice (CD1 strain),produced a lifting/licking response
"COc1ccc(C(=O)O[C@H]2CC[C@@]3(C)[C@@H]4CC[C@H]5[C@]6(O)C[C@H](O)[C@@]7(O)[C@@H](CN8C[C@@H](C)CC[C@H]8[C@@]7(C)O)[C@]6(O)C[C@@]53O[C@]24O)cc1OC [veratridine, 4α,9-Epoxy-3β-veratroyloxy-5β-cevan-4β,12,14,16β,17,20-hexaol]",lifting behavior caused by veratridine,male mice (CD1 strain),caused equivalent lifting behavior
same,pain-related behaviors caused by veratridine injected into the paw,[1],caused two separate pain-related behaviors
same,side effects of veratridine,[1],variable neurological side effects

# Source: patent publication US20120185956A1, “GLOBAL NAV1.7 KNOCKOUT MICE AND USES” (priority 2011, published 2012)
